In PubChem BioAssay AID248 (DTP/NCI, 2004):
“And” between values parts separate entries of the source, which are not always exact repeats. Identical values can stand only once. Toxic doses and inconclusive results are not listed. Cut-off read from the data, not from the text of the source: active = T/C of 150% or more; inactive = T/C below 125%.

Test system: L1210 leukemia ip in BDF1 mice, survival T/C
Test: NCI In Vivo Anticancer Drug Screen. Data for tumor model L1210 Leukemia (intraperitoneal) in B6D2F1 (BDF1) mice
Settings: endpoint: mean survival time, higher = longer survival
Procedure, shortened: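 Survival endpoint. Drug-treated group vs vehicle group, expressed as T divided by C. Tumor passaged by transplantation.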

[1] = dose: 100.0 mg/kg/injection, schedule: Q01DX001 (ip), vehicle: saline
[2] = dose: 100.0 mg/kg/injection, schedule: Q01DX009 (ip), vehicle: saline
[3] = dose: 100.0 mg/kg/injection, schedule: Q04DX003 (ip), vehicle: saline
[4] = dose: 200.0 mg/kg/injection, schedule: Q01DX001 (ip), vehicle: saline
[5] = dose: 200.0 mg/kg/injection, schedule: Q01DX009 (ip), vehicle: saline
[6] = dose: 200.0 mg/kg/injection, schedule: Q04DX003 (ip), vehicle: saline
[7] = dose: 400.0 mg/kg/injection, schedule: Q01DX009 (ip), vehicle: saline
[8] = dose: 400.0 mg/kg/injection, schedule: Q04DX003 (ip), vehicle: saline
[9] = dose: 400.0 mg/kg/injection, schedule: Q01DX001 (ip), vehicle: saline
[10] = dose: 100.0 mg/kg/injection, schedule: Q04DX003 (ip), vehicle: carboxymethylcellulose (CMC)
[11] = dose: 100.0 mg/kg/injection, schedule: Q01DX009 (ip), vehicle: Klucel (hydroxypropylcellulose) (HPC)
[12] = dose: 200.0 mg/kg/injection, schedule: Q01DX009 (ip), vehicle: Klucel (hydroxypropylcellulose) (HPC)
[13] = dose: 400.0 mg/kg/injection, schedule: Q01DX009 (ip), vehicle: Klucel (hydroxypropylcellulose) (HPC)
[14] = dose: 100.0 mg/kg/injection, schedule: Q04DX003 (ip), vehicle: Klucel (hydroxypropylcellulose) (HPC)
[15] = dose: 200.0 mg/kg/injection, schedule: Q04DX003 (ip), vehicle: Klucel (hydroxypropylcellulose) (HPC)
[16] = dose: 400.0 mg/kg/injection, schedule: Q04DX003 (ip), vehicle: Klucel (hydroxypropylcellulose) (HPC)
[17] = dose: 100.0 mg/kg/injection, schedule: Q04DX003 (ip), vehicle: acetone
[18] = dose: 200.0 mg/kg/injection, schedule: Q04DX003 (ip), vehicle: acetone
[19] = dose: 400.0 mg/kg/injection, schedule: Q04DX003 (ip), vehicle: acetone
[20] = dose: 50.0 mg/kg/injection, schedule: Q01DX009 (ip), vehicle: saline

Measured: T/C

C/C1=C/CCCCCC1
inactive: [1] 90 % of control | [2] 96 % of control | [3] 96 % of control | [4] 101 % of control | [5] 89 % of control | [6] 101 % of control | [7] 94 % of control | [8] 98 % of control

S=c1nc[nH]c2c1ncn2C1OC(COCc2ccccc2)C(OCc2ccccc2)C1OCc1ccccc1 (centres undefined)
inactive: dose: 50.0 mg/kg/injection, schedule: Q01DX001 (ip), vehicle: saline 93 % of control | [1] 102 % of control | [4] 93 % of control | [9] 96 % of control

ClCC(Br)CBr (centres undefined)
inactive: dose: 75.0 mg/kg/injection, schedule: Q01DX001 (ip), vehicle: saline 106 % of control | dose: 150.0 mg/kg/injection, schedule: Q01DX001 (ip), vehicle: saline 104 % of control

C=CC(=O)NCNC(=O)C=C
inactive: dose: 50.0 mg/kg/injection, schedule: Q04DX003 (ip), vehicle: carboxymethylcellulose (CMC) 100 % of control | [1] 97 % of control | [10] 110 % of control | [4] 101 % of control | [9] 113 % of control

O=C(Nc1ccc(F)cc1)OCCOc1ccc(Br)cc1
inactive: [11] 95 % of control | [12] 98 % of control | [13] 102 % of control

OC1CCN2CCCc3cccc1c32 (centres undefined)
inactive: dose: 12.5 mg/kg/injection, schedule: Q01DX009 (ip), vehicle: DMSO 93 % of control | dose: 12.5 mg/kg/injection, schedule: Q04DX003 (ip), vehicle: DMSO 94 % of control | dose: 25.0 mg/kg/injection, schedule: Q01DX009 (ip), vehicle: DMSO 94 % of control | dose: 25.0 mg/kg/injection, schedule: Q04DX003 (ip), vehicle: DMSO 95 % of control | dose: 50.0 mg/kg/injection, schedule: Q01DX009 (ip), vehicle: DMSO 90 % of control | dose: 50.0 mg/kg/injection, schedule: Q04DX003 (ip), vehicle: DMSO 105 % of control

Cc1nc(-c2ccc(N=Cc3ccc(N(CCOS(C)(=O)=O)CCOS(C)(=O)=O)cc3)cc2)cs1
inactive: dose: 2.5 mg/kg/injection, schedule: Q04DX003 (ip), vehicle: Klucel (hydroxypropylcellulose) (HPC) 106 % of control | dose: 5.0 mg/kg/injection, schedule: Q04DX003 (ip), vehicle: Klucel (hydroxypropylcellulose) (HPC) 113 % of control | dose: 10.0 mg/kg/injection, schedule: Q04DX003 (ip), vehicle: Klucel (hydroxypropylcellulose) (HPC) 120 % of control | [14] 118 % of control | [15] 88 % of control

Cc1cc(C)c(NC(=O)NC(C)C)c(C)c1
inactive: [11] 104 % of control | [14] 98 % of control | [12] 101 % of control | [15] 105 % of control | [13] 91 % of control | [16] 91 % of control

CCN(CC)S(=O)(=O)c1ccc(OC)c(N)c1
inactive: [11] 98 % of control | dose: 100.0 mg/kg/injection, schedule: Q04DX003 (ip), vehicle: other 96 % of control | [12] 96 % of control | dose: 200.0 mg/kg/injection, schedule: Q04DX003 (ip), vehicle: other 104 % of control | [13] 104 % of control | dose: 400.0 mg/kg/injection, schedule: Q04DX003 (ip), vehicle: other 100 % of control

CCCCC(=O)NCCc1ccc2c([nH]c3ccccc32)c1C
inactive: [3] 96 % of control | [6] 104 % of control | [8] 96 % of control

O=C(O)/C(=C\c1[nH]c(=O)[nH]c(=O)c1Br)NC(=O)c1ccccc1
inactive: dose: 100.0 mg/kg/injection, schedule: Q04DX003 (ip), vehicle: saline with Tween-80 104 % of control | dose: 200.0 mg/kg/injection, schedule: Q04DX003 (ip), vehicle: saline with Tween-80 103 % of control | dose: 400.0 mg/kg/injection, schedule: Q04DX003 (ip), vehicle: saline with Tween-80 101 % of control

O=C1C=CC(=O)N1c1ccc(Cl)cc1 (tested in a mixture with another compound)
inactive: [17] 94 % of control | [18] 103 % of control | [19] 87 % of control

CCc1cccc(OS(=O)(=O)c2ccc([N+](=O)[O-])cc2)c1
inactive: dose: 25.0 mg/kg/injection, schedule: Q01DX009 (ip), vehicle: Klucel (hydroxypropylcellulose) (HPC) 95 % of control | [11] 92 % of control

O=C(O)CCCCCN1C(=O)C2OC3C(=O)N(CCCCCC(=O)O)C(=O)C3C2C1=O (centres undefined)
inactive: [10] 95 % of control | dose: 200.0 mg/kg/injection, schedule: Q04DX003 (ip), vehicle: carboxymethylcellulose (CMC) 95 % of control | dose: 400.0 mg/kg/injection, schedule: Q04DX003 (ip), vehicle: carboxymethylcellulose (CMC) 97 % of control

Nc1ncnc2c1ncn2C1CCCCC1
inactive: dose: 17.5 mg/kg/injection, schedule: Q01DX Z (ip), vehicle: carboxymethylcellulose (CMC) 89 % of control | dose: 34.0 mg/kg/injection, schedule: Q01DX Z (ip), vehicle: carboxymethylcellulose (CMC) 98 % of control | dose: 34.0 mg/kg/injection, schedule: Q01DX Z (oral), vehicle: carboxymethylcellulose (CMC) 97 % of control | dose: 68.0 mg/kg/injection, schedule: Q01DX Z (ip), vehicle: carboxymethylcellulose (CMC) 102 % of control | dose: 68.0 mg/kg/injection, schedule: Q01DX Z (oral), vehicle: carboxymethylcellulose (CMC) 100 % of control | dose: 136.0 mg/kg/injection, schedule: Q01DX Z (oral), vehicle: carboxymethylcellulose (CMC) 102 % of control

Nc1nc(=O)n(C2CC(O)C(CO)O2)cc1F (centres undefined)
inactive: dose: 30.0 mg/kg/injection, schedule: Q01DX Z (ip), vehicle: saline 105 % of control

CC1(C)N=C(N)N=C(N)N1c1ccc(OCCOc2ccc(NC(=O)CBr)cc2)cc1
inactive: dose: 120.0 mg/kg/injection, schedule: Q01DX009 (ip), vehicle: saline 124 % of control | dose: 176.0 mg/kg/injection, schedule: Q01DX009 (ip), vehicle: saline 112 % of control | dose: 266.0 mg/kg/injection, schedule: Q01DX009 (ip), vehicle: saline 107 % of control | [7] 98 % of control

O=C1CC(C(=O)O)c2ccccc21 (centres undefined)
inactive: [20] 93 % of control | [2] 90 % of control | [5] 93 % of control

Cc1csc(=S)n1-c1ccc(Cl)cc1
inactive: dose: 100.0 mg/kg/injection, schedule: Q01DX001 (ip), vehicle: saline with Tween-80 107 % of control | dose: 200.0 mg/kg/injection, schedule: Q01DX001 (ip), vehicle: saline with Tween-80 100 % of control | dose: 400.0 mg/kg/injection, schedule: Q01DX001 (ip), vehicle: saline with Tween-80 98 % of control

c1ccc(OP2OCCO2)cc1
inactive: [20] 92 % of control | dose: 50.0 mg/kg/injection, schedule: Q04DX003 (ip), vehicle: saline 105 % of control | [2] 102 % of control | [3] 102 % of control | [5] 92 % of control | [6] 103 % of control

COc1cc(Oc2ccc(OC)c(OC)c2)c(C=O)cc1Br
inactive: [17] 96 % of control | [18] 97 % of control | [19] 97 % of control

COc1ccc(CC[n+]2ccc(C#N)c(C(C)=O)c2)cc1OC
inactive: dose: 75.0 mg/kg/injection, schedule: Q01DX001 (ip), vehicle: carboxymethylcellulose (CMC) 106 % of control | dose: 150.0 mg/kg/injection, schedule: Q01DX001 (ip), vehicle: carboxymethylcellulose (CMC) 105 % of control

CCCCC(=O)NN
inactive: dose: 12.5 mg/kg/injection, schedule: Q01DX009 (ip), vehicle: saline with Tween-80 103 % of control | dose: 22.0 mg/kg/injection, schedule: Q01DX009 (ip), vehicle: saline with Tween-80 110 % of control | dose: 25.0 mg/kg/injection, schedule: Q01DX009 (ip), vehicle: saline with Tween-80 111 % of control and 112 % of control | dose: 50.0 mg/kg/injection, schedule: Q01DX009 (ip), vehicle: saline with Tween-80 100 % of control | dose: 60.0 mg/kg/injection, schedule: Q01DX009 (ip), vehicle: saline with Tween-80 118 % of control

O=C(Cl)C1CC2c3ccccc3C1([N+](=O)[O-])c1ccccc12 (centres undefined)
inactive: dose: 50.0 mg/kg/injection, schedule: Q01DX009 (ip), vehicle: Klucel (hydroxypropylcellulose) (HPC) 109 % of control | [11] 102 % of control | [14] 104 % of control | [12] 112 % of control and 91 % of control | [15] 104 % of control | [13] 101 % of control | [16] 98 % of control
